{"source": "the kinase profiling compilation of Christmann-Franck et al. (2016)", "assay_in_all_cases": "radiometric filter-binding kinase assay, Kinase HotSpot", "conditions_in_all_cases": "compound 0.5 µM; ATP 10 µM", "key": {"[1]": {"molecular_target": "RIPK2 (human) (UniProt O43353)"}, "[2]": {"molecular_target": "PRKD2 (human) (UniProt Q9BZL6)"}, "[3]": {"molecular_target": "PRKG1 (human) (UniProt Q13976)", "sequence (Q13976 whole entry, looked up)": "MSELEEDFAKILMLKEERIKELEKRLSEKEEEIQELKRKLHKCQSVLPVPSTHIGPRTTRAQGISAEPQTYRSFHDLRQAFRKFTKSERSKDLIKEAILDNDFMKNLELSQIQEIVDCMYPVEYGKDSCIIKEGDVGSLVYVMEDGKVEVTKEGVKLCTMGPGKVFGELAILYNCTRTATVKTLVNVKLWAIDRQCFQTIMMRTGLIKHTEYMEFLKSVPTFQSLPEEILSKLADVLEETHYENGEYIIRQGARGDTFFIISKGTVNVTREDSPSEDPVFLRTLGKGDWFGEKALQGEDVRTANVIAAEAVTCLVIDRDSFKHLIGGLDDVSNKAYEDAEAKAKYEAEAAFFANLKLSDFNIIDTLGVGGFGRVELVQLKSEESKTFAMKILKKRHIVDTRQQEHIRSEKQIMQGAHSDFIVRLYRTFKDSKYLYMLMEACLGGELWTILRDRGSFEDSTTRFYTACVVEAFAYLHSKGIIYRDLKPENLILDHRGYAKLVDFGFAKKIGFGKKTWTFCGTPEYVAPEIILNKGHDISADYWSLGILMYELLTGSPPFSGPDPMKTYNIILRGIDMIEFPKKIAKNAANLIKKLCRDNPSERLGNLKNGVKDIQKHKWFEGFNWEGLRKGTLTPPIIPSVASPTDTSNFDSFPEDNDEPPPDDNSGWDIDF"}, "[4]": {"molecular_target": "DMPK (human) (UniProt Q09013)"}, "[5]": {"molecular_target": "NEK7 (human) (UniProt Q8TDX7)"}, "[6]": {"molecular_target": "ALK (human) (UniProt Q9UM73)"}, "[7]": {"molecular_target": "BMX (human) (UniProt P51813)"}, "[8]": {"molecular_target": "STK17A (human) (UniProt Q9UEE5)"}, "[9]": {"molecular_target": "OXSR1 (human) (UniProt O95747)"}, "[10]": {"molecular_target": "EPHA4 (human) (UniProt P54764)"}, "[11]": {"molecular_target": "STK25 (human) (UniProt O00506)"}, "[12]": {"molecular_target": "ZAP70 (human) (UniProt P43403)"}, "[13]": {"molecular_target": "PAK4 (human) (UniProt O96013)", "sequence (O96013 whole entry, looked up)": "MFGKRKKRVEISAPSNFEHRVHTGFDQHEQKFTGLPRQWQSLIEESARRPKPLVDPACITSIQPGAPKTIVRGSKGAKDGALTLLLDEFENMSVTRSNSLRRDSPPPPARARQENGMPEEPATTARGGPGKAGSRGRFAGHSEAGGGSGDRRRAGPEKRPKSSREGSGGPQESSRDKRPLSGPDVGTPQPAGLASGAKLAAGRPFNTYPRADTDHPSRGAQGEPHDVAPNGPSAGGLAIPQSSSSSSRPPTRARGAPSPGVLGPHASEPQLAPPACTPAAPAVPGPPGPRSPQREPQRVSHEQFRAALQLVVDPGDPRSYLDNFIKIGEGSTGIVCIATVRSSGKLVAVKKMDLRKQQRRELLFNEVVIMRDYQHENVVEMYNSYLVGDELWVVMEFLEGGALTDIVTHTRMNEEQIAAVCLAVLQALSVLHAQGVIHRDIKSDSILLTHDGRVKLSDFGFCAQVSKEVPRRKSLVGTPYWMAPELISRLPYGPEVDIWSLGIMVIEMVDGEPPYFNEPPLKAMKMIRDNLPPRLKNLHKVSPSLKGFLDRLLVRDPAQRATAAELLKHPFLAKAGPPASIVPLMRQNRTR"}, "[14]": {"molecular_target": "TSSK2 (human) (UniProt Q96PF2)"}, "[15]": {"molecular_target": "PIM2 (human) (UniProt Q9P1W9)"}, "[16]": {"molecular_target": "LRRK2 (human) (UniProt Q5S007)"}, "[17]": {"molecular_target": "CAMK2B (human) (UniProt Q13554)"}, "[18]": {"molecular_target": "IRAK1 (human) (UniProt P51617)"}, "[19]": {"molecular_target": "GRK7 (human) (UniProt Q8WTQ7)"}, "[20]": {"molecular_target": "LTK (human) (UniProt P29376)"}, "[21]": {"molecular_target": "NTRK1 (human) (UniProt P04629)"}, "[22]": {"molecular_target": "CDC42BPA (human) (UniProt Q5VT25)"}, "[23]": {"molecular_target": "GSK3A (human) (UniProt P49840)"}, "[24]": {"molecular_target": "CDK3 CCNE1 (human) (UniProt Q00526+P24864)"}, "[25]": {"molecular_target": "STK10 (human) (UniProt O94804)"}, "[26]": {"molecular_target": "CSK (human) (UniProt P41240)"}, "[27]": {"molecular_target": "EPHB2 (human) (UniProt P29323)"}, "[28]": {"molecular_target": "ROCK1 (human) (UniProt Q13464)"}, "[29]": {"molecular_target": "HCK (human) (UniProt P08631)"}, "[30]": {"molecular_target": "NEK1 (human) (UniProt Q96PY6)"}, "[31]": {"molecular_target": "SRC (human) (UniProt P12931)"}, "[32]": {"molecular_target": "LYN (human) (UniProt P07948)", "sequence (P07948 whole entry, looked up)": "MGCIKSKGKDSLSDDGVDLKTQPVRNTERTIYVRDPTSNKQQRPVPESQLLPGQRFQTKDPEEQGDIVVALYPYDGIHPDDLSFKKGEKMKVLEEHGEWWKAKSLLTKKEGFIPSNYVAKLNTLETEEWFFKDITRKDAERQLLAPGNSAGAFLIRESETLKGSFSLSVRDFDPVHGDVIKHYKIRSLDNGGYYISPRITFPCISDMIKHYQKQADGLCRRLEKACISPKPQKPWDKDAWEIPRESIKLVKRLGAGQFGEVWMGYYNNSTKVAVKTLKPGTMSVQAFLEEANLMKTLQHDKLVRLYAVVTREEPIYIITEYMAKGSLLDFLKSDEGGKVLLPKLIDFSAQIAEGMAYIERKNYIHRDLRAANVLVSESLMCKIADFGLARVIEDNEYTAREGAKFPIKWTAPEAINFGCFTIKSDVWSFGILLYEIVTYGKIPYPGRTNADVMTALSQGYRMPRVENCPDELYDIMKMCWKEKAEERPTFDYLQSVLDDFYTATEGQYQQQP"}, "[33]": {"molecular_target": "AKT2 (human) (UniProt P31751)"}, "[34]": {"molecular_target": "PAK7 (human) (UniProt Q9P286)", "sequence (Q9P286 whole entry, looked up)": "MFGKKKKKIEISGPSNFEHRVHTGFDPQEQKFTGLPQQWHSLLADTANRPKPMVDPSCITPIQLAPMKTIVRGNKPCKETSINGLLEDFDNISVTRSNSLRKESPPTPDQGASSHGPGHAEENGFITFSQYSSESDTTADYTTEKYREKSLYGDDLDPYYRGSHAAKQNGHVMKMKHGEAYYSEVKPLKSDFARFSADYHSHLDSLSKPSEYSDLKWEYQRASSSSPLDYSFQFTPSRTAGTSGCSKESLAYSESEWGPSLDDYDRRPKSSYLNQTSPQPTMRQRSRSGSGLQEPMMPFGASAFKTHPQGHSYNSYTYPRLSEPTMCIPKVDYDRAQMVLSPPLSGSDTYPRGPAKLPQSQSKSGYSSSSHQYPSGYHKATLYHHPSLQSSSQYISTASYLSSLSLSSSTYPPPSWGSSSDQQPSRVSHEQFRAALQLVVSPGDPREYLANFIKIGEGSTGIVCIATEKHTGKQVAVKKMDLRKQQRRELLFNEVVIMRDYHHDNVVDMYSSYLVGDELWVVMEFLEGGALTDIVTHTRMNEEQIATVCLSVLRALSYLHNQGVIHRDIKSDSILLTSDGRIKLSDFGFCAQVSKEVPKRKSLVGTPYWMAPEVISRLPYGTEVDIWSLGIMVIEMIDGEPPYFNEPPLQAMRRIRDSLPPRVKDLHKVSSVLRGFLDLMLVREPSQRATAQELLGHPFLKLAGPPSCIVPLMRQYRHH"}, "[35]": {"molecular_target": "MAP4K2 (human) (UniProt Q12851)"}, "[36]": {"molecular_target": "PRKG2 (human) (UniProt Q13237)"}, "[37]": {"molecular_target": "RPS6KB1 (human) (UniProt P23443)", "sequence (P23443 whole entry, looked up)": "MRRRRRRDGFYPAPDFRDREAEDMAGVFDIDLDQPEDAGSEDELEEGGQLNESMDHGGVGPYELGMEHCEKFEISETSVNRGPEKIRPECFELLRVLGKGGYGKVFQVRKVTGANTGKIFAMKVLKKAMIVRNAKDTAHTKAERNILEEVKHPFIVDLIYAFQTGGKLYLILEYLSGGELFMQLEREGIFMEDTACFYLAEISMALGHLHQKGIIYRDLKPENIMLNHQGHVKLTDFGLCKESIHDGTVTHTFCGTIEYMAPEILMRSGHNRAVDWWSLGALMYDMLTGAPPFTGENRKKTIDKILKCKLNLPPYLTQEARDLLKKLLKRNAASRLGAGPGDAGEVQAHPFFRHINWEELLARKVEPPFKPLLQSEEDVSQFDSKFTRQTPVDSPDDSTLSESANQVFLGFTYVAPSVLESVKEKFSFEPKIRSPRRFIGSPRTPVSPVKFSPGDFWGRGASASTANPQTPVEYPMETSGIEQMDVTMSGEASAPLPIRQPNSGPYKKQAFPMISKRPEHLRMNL"}, "[38]": {"molecular_target": "DAPK1 (human) (UniProt P53355)"}, "[39]": {"molecular_target": "ROCK2 (human) (UniProt O75116)"}, "[40]": {"molecular_target": "TNK2 (human) (UniProt Q07912)", "sequence (Q07912 whole entry, looked up)": "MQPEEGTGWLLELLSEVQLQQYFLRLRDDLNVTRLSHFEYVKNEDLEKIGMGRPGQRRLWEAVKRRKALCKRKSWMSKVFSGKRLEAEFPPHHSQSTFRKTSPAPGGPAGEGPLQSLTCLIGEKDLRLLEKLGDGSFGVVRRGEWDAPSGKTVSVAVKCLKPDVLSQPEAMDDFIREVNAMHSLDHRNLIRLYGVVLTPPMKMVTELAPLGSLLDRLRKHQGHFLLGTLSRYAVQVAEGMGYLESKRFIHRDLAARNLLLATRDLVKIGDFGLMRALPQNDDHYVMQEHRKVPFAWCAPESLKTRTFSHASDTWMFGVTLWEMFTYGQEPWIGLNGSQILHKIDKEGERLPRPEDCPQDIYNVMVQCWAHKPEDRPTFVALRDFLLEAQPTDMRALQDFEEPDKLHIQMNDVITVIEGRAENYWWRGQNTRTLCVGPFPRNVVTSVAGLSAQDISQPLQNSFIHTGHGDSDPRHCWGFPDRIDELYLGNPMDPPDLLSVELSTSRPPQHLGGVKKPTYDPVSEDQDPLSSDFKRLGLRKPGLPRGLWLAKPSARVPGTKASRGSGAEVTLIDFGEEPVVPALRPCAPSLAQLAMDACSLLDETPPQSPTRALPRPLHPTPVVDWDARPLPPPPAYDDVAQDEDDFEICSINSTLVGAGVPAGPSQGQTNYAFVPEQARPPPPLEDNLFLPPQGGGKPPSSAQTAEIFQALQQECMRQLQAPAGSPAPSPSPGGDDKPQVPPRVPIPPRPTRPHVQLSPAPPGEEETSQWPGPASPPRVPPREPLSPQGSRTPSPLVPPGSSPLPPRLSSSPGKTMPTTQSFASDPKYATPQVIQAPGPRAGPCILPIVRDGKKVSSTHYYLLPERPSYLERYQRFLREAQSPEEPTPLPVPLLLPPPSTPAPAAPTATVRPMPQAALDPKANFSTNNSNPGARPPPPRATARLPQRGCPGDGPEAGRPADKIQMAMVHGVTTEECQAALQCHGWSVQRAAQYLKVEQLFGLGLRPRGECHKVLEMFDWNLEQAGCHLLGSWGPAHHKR"}, "[41]": {"molecular_target": "CLK2 (human) (UniProt P49760)"}, "[42]": {"molecular_target": "MAP3K11 (human) (UniProt Q16584)", "sequence (Q16584 whole entry, looked up)": "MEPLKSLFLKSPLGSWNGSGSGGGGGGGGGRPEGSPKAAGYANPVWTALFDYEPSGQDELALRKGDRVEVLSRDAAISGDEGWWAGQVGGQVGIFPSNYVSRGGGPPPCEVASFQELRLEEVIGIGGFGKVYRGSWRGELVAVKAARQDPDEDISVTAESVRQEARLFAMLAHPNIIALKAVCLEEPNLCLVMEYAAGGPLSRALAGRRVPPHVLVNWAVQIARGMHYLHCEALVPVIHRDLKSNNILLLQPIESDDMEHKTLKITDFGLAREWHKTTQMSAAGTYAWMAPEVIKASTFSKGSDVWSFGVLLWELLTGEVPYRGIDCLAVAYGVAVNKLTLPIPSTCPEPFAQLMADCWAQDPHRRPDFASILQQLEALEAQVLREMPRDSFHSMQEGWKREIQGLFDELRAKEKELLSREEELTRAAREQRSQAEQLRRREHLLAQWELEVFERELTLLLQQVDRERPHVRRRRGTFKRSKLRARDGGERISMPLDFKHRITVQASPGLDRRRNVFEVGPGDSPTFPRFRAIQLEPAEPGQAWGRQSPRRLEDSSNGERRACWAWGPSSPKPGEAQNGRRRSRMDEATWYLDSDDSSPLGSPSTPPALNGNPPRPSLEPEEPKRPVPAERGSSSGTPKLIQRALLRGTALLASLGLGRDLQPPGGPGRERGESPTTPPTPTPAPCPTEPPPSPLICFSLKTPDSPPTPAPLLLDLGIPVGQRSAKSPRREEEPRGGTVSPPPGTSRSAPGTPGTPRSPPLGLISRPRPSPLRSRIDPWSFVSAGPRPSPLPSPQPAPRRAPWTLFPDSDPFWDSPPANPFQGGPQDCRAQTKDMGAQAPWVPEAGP"}}, "note": "Several values for one entry are separate records, joined by “and”; a condition that tells them apart may be missing. Equal values may be shown once.", "data": [{"smiles": "COc1cc2ncnc(Nc3ccc(O)c(Br)c3)c2cc1OC", "values": [{"measurement": "residual activity", "setting": "[1]", "result": 36.7, "unit": "%"}, {"measurement": "residual activity", "setting": "[2]", "result": 69.7, "unit": "%"}, {"measurement": "residual activity", "setting": "[3]", "result": "87.1% and 88.9%"}, {"measurement": "residual activity", "setting": "[4]", "result": 101, "unit": "%"}, {"measurement": "residual activity", "setting": "[5]", "result": 101, "unit": "%"}, {"measurement": "residual activity", "setting": "[6]", "result": 12.5, "unit": "%"}, {"measurement": "residual activity", "setting": "[7]", "result": 95.3, "unit": "%"}, {"measurement": "residual activity", "setting": "[8]", "result": 72.3, "unit": "%"}, {"measurement": "residual activity", "setting": "[9]", "result": 98.8, "unit": "%"}, {"measurement": "residual activity", "setting": "[10]", "result": 83.7, "unit": "%"}, {"measurement": "residual activity", "setting": "[11]", "result": 99.6, "unit": "%"}, {"measurement": "residual activity", "setting": "[12]", "result": 99.7, "unit": "%"}, {"measurement": "residual activity", "setting": "[13]", "result": 95.7, "unit": "%"}, {"measurement": "residual activity", "setting": "[14]", "result": 98.7, "unit": "%"}, {"measurement": "residual activity", "setting": "[15]", "result": 94.1, "unit": "%"}, {"measurement": "residual activity", "setting": "[16]", "result": 82.7, "unit": "%"}, {"measurement": "residual activity", "setting": "[17]", "result": 99.3, "unit": "%"}, {"measurement": "residual activity", "setting": "[18]", "result": 75.5, "unit": "%"}, {"measurement": "residual activity", "setting": "[19]", "result": 96.4, "unit": "%"}, {"measurement": "residual activity", "setting": "[20]", "result": 5.44, "unit": "%"}, {"measurement": "residual activity", "setting": "[21]", "result": 96.4, "unit": "%"}, {"measurement": "residual activity", "setting": "[22]", "result": 96.9, "unit": "%"}, {"measurement": "residual activity", "setting": "[23]", "result": 131, "unit": "%"}, {"measurement": "residual activity", "setting": "[24]", "result": 93.5, "unit": "%"}, {"measurement": "residual activity", "setting": "[25]", "result": 14.5, "unit": "%"}, {"measurement": "residual activity", "setting": "[26]", "result": 91.6, "unit": "%"}, {"measurement": "residual activity", "setting": "[27]", "result": 66.1, "unit": "%"}, {"measurement": "residual activity", "setting": "[28]", "result": 96.1, "unit": "%"}, {"measurement": "residual activity", "setting": "[29]", "result": 52.2, "unit": "%"}, {"measurement": "residual activity", "setting": "[30]", "result": 90.5, "unit": "%"}, {"measurement": "residual activity", "setting": "[31]", "result": 77.5, "unit": "%"}, {"measurement": "residual activity", "setting": "[32]", "result": "40.3% and 60%"}, {"measurement": "residual activity", "setting": "[33]", "result": 98.7, "unit": "%"}, {"measurement": "residual activity", "setting": "[34]", "result": 97.7, "unit": "%"}, {"measurement": "residual activity", "setting": "[35]", "result": 101, "unit": "%"}, {"measurement": "residual activity", "setting": "[36]", "result": 84.1, "unit": "%"}, {"measurement": "residual activity", "setting": "[37]", "result": 82.1, "unit": "%"}, {"measurement": "residual activity", "setting": "[38]", "result": 92, "unit": "%"}, {"measurement": "residual activity", "setting": "[39]", "result": 89.9, "unit": "%"}, {"measurement": "residual activity", "setting": "[40]", "result": 10.5, "unit": "%"}, {"measurement": "residual activity", "setting": "[41]", "result": 96.7, "unit": "%"}, {"measurement": "residual activity", "setting": "[42]", "result": 83.7, "unit": "%"}]}, {"smiles": "O=C1NC(=O)c2c1c1c3ccccc3[nH]c1c1[nH]c3cc(Br)ccc3c21", "values": [{"measurement": "residual activity", "setting": "[1]", "result": 99.6, "unit": "%"}, {"measurement": "residual activity", "setting": "[2]", "result": 45.9, "unit": "%"}, {"measurement": "residual activity", "setting": "[3]", "result": "76% and 90.7%"}, {"measurement": "residual activity", "setting": "[4]", "result": 104, "unit": "%"}, {"measurement": "residual activity", "setting": "[5]", "result": 96.8, "unit": "%"}, {"measurement": "residual activity", "setting": "[6]", "result": 94, "unit": "%"}, {"measurement": "residual activity", "setting": "[7]", "result": 92, "unit": "%"}, {"measurement": "residual activity", "setting": "[8]", "result": 29.5, "unit": "%"}, {"measurement": "residual activity", "setting": "[9]", "result": 95.8, "unit": "%"}, {"measurement": "residual activity", "setting": "[10]", "result": 91.3, "unit": "%"}, {"measurement": "residual activity", "setting": "[11]", "result": 84.4, "unit": "%"}, {"measurement": "residual activity", "setting": "[12]", "result": 104, "unit": "%"}, {"measurement": "residual activity", "setting": "[13]", "result": 96.4, "unit": "%"}, {"measurement": "residual activity", "setting": "[14]", "result": 96.9, "unit": "%"}, {"measurement": "residual activity", "setting": "[15]", "result": 44.6, "unit": "%"}, {"measurement": "residual activity", "setting": "[16]", "result": 49.8, "unit": "%"}, {"measurement": "residual activity", "setting": "[17]", "result": 80.3, "unit": "%"}, {"measurement": "residual activity", "setting": "[18]", "result": 81.8, "unit": "%"}, {"measurement": "residual activity", "setting": "[19]", "result": 98.2, "unit": "%"}, {"measurement": "residual activity", "setting": "[20]", "result": 89.9, "unit": "%"}, {"measurement": "residual activity", "setting": "[21]", "result": 82.2, "unit": "%"}, {"measurement": "residual activity", "setting": "[22]", "result": 97.5, "unit": "%"}, {"measurement": "residual activity", "setting": "[23]", "result": 33.9, "unit": "%"}, {"measurement": "residual activity", "setting": "[24]", "result": 88.1, "unit": "%"}, {"measurement": "residual activity", "setting": "[25]", "result": 84.6, "unit": "%"}, {"measurement": "residual activity", "setting": "[26]", "result": 100, "unit": "%"}, {"measurement": "residual activity", "setting": "[27]", "result": 99.5, "unit": "%"}, {"measurement": "residual activity", "setting": "[28]", "result": 93.9, "unit": "%"}, {"measurement": "residual activity", "setting": "[29]", "result": 92.4, "unit": "%"}, {"measurement": "residual activity", "setting": "[30]", "result": 89.1, "unit": "%"}, {"measurement": "residual activity", "setting": "[31]", "result": 88.9, "unit": "%"}, {"measurement": "residual activity", "setting": "[32]", "result": "92.1% and 93.2%"}, {"measurement": "residual activity", "setting": "[33]", "result": 86.9, "unit": "%"}, {"measurement": "residual activity", "setting": "[34]", "result": 96.7, "unit": "%"}, {"measurement": "residual activity", "setting": "[35]", "result": 74.1, "unit": "%"}, {"measurement": "residual activity", "setting": "[36]", "result": 29.7, "unit": "%"}, {"measurement": "residual activity", "setting": "[37]", "result": 45.2, "unit": "%"}, {"measurement": "residual activity", "setting": "[38]", "result": 73.5, "unit": "%"}, {"measurement": "residual activity", "setting": "[39]", "result": 72.7, "unit": "%"}, {"measurement": "residual activity", "setting": "[40]", "result": 97.4, "unit": "%"}, {"measurement": "residual activity", "setting": "[41]", "result": 84.7, "unit": "%"}, {"measurement": "residual activity", "setting": "[42]", "result": 14, "unit": "%"}]}]}
